From ChEMBL document CHEMBL1949643, “Dactylomelatriol, a biogenetically intriguing omphalane-derived marine sesquiterpene” (2012)

Experiments:
[1] = system: Bacillus cereus; assay: Antimicrobial activity against Bacillus cereus ATCC 21772 by broth macrodilution method; assay type: functional
[2] = system: Candida albicans; assay: Antifungal activity against Candida albicans SC5314 by broth macrodilution method; assay type: functional

Row | Structure (SMILES) | MIC [1] [µg/mL] | MIC [2] [µg/mL]
1 | C=C1C[C@H](O)[C@H](Br)C(C)(C)[C@@]12CCC(C)=C(Cl)C2 [ELATOL] | > 50 | 
2 | C=C1C[C@@H](O)[C@@H](Br)C(C)(C)[C@]12CC[C@@](C)(Br)[C@H](Cl)C2 [OBTUSOL] | > 50 | > 50
